Source: article PMC11253855, “Phosphonodiamidate prodrugs of phosphoantigens (ProPAgens) exhibit potent Vγ9/Vδ2 T cell activation and eradication of cancer cells” (RSC Medicinal Chemistry, 2024)
Like-named read-outs stand apart in the source and are kept apart here.

Experiments:
Vγ9/Vδ2 T cells [1] = assay: In vitro Vγ9/Vδ2 T cell activation assay (PBMCs, CD69+ CD25+ by flow cytometry); assay type: cell-based, human; conditions: for Activation of Vγ9/Vδ2 T cells at the highest concentration studied: 100 μM compared with 10 μM; for EC50: Homo sapiens, T-cell, read-out: EC50 (activation of Vγ9/Vδ2 T cells)
Procedure: Subsequently, we studied the ability of these HMBP phosphonodiamidate ProPAgens to activate Vγ9/Vδ2 T cells and elicit their lysis of cancer cells in vitro. For this, peripheral blood mononuclear cells (PBMCs) derived from healthy donors and containing Vγ9/Vδ2 T cells were incubated with increasing concentrations of zoledronate or phosphonodiamidate HMBP ProPAgens 9a–d and 14a–d (up to 100 μM) (Fig. 4). Peripheral blood γδ T cells lack appreciable levels of surface CD69 or CD25 under steady-state conditions, but TCR stimulation upregulates both T cell activation markers.[6] Thus, PAg-responsive Vγ9/Vδ2 T cells were then assessed for the upregulation of CD69 and CD25.
Fig. 4 In vitro phosphonodiamidate ProPAgen-mediated activation of Vγ9/Vδ2 T cells, following overnight incubation with zoledronate, and HMBP ProPAgens 9a–d and 14a–d. Levels of activation are represented as % of Vγ9/Vδ2 T cells that are CD69+ CD25+. Data is shown as mean ± SE (n = 4). (A) Activation of Vγ9/Vδ2 stimulated by phosphonodiamidate ProPAgens 9a–d. (B) Activation of Vγ9/Vδ2 stimulated by ProPAgens 14a–d. (C) Activation of Vγ9Vδ2 stimulated by zoledronate (Zol). (D) EC50 values were calculated using GraphPad Prism v9 based on the results of the activation assay.
As for the activation of Vγ9/Vδ2 T cells by the phosphonodiamidate ProPAgens (9a–d and 14a–d), these were initially tested using a concentration range from […] to 100 μM (Fig. 4A and B).
Healthy donor peripheral blood mononuclear cells (PBMCs) were harvested as previously described.[20] To assess the activation of Vγ9/Vδ2 T cells, PBMCs were seeded into U-bottom tissue culture-treated 96-well plates at a cell density of 500 000 cells per well. The cells were incubated with medium-only (control), in the presence of zoledronate at 10 pM to 100 μM, and with HMBP ProPAgens initially at 10 pM to 100 μM, and then at 1 aM to 100 μM for compounds 9d and 14d in a separate experiment. The cells were incubated at 37 °C/5% CO2 overnight, and stained by flow cytometry for the following markers: viability (Zombie Aqua 1 : 400), CD3 (BV421 1 : 100), CD8 (BV650 1 : 200), Vγ9 (PEcy5 1 : 400), Vδ2 (APC 1 : 200), CD69 (PE 1 : 25), CD25 (FITC 1 : 100). The samples were acquired via LSRFortessa X20 (BD Biosciences), and the data obtained were analyzed using FlowJo v10 and GraphPad Prism v9 software.

T24 cells = assay: Europium-based (DELFIA) cytotoxicity assay: Vγ9/Vδ2 T cell killing of drug-treated T24 cells; set-up: species or system human; conditions: 10 nM ProPAgen for 2 h versus 10 μM zoledronate; effector : target 80 : 1, 1 h
Procedure: Encouraged by the potency and specificity of our HMBP phosphonodiamidate ProPAgens, especially 9d and 14d, we subsequently studied their ability to sensitize the urinary bladder carcinoma cell line T24 for targeted killing by in vitro expanded Vγ9/Vδ2 T cells (Fig. 5). In brief, T24 cells were incubated in PBS containing 10 μM zoledronate or the indicated HMBP phosphonodiamidate ProPAgens for a period of 2 h. A positive control for cell death (target cells incubated with 10% v/v DELFIA lysis buffer) and media-only treated control (no drug) was also included. The cells were then washed and cocultured with ex vivo expanded Vγ9/Vδ2 T cells for 1 h at 80 : 1 effector : target ratio, and the level of killing of T24 cells was then measured via time-resolved fluorescence.
Fig. 5 Cytotoxicity of Vγ9/Vδ2 T cells toward the phosphonodiamidate ProPAgen-treated T24 cells. % killing of T24 cells was calculated with this formula: [(experimental release − spontaneous release)/(maximal release − spontaneous release)] × 100. […]
To assess the level of killing of drug-treated and untreated tumour cells, a Europium-based cytotoxicity assay was performed (DELFIA, Perkin Elmer) as described elsewhere.[47] […] Time-resolved fluorescence was then measured using a PHERAstar microplate reader (BMG Labtech). […] The data were processed and analysed using Microsoft Excel and GraphPad Prism v9 software.

Vγ9/Vδ2 T cells [2] = conditions: read-out: EC50 (activator of Vγ9/Vδ2 T cells), cited from earlier work
[3] = Fig. 1A legend, no reference given

SMILES	EC50 (Vγ9/Vδ2 T cells [1]) [nM]	EC50 (Vγ9/Vδ2 T cells [2]; [3]) [nM]	other results
C/C(=C\CCP(=O)(N[C@@H](C)C(=O)OCc1ccccc1)N[C@@H](C)C(=O)OCc1ccccc1)CO [14d, Dibenzyl 2,2′-((((E)-5-hydroxy-4-methylpent-3-en-1-yl)phosphoryl)bis(azanediyl))(2S,2′S)-dipropionate]	27		Activation of Vγ9/Vδ2 T cells at the highest concentration studied (Vγ9/Vδ2 T cells [1]): less than that achieved with 10 μM; sensitizing effect for killing of T24 cells by Vγ9/Vδ2 T cells (T24 cells): much more potent
O=P(O)(O)C(O)(Cn1ccnc1)P(=O)(O)O [Zoledronate, zoledronate]		3 to 3000	
C/C(=C\COP(=O)(O)OP(=O)(O)O)CO [HMBPP, (E)-4-hydroxy-3-methyl-but-2-enyl pyrophosphate]		0.06 to 0.5	
C/C(=C\CCP(=O)(N[C@@H](C)C(=O)OC(C)C)N[C@@H](C)C(=O)OC(C)C)CO [14b, Diisopropyl 2,2′-((((E)-5-hydroxy-4-methylpent-3-en-1-yl)phosphoryl)bis(azanediyl))(2S,2′S)-dipropionate]	87		
COC(=O)[C@H](C)NP(=O)(N[C@@H](C)C(=O)OC)C(F)(F)C/C=C(\C)CO [9a, Dimethyl 2,2′-((((E)-1,1-difluoro-5-hydroxy-4-methylpent-3-en-1-yl)phosphoryl)bis(azanediyl))(2S,2′S)-dipropionate]	191		
C/C(=C\COP(=O)(O)O)CO [HMBP, (E)-4-Hydroxy-3-methylbut-2-enyl monophosphate]			EC50 (Vγ9/Vδ2 T cells [2]): 4000 nM
C/C(=C\CC(F)(F)P(=O)(N[C@@H](C)C(=O)OC(C)(C)C)N[C@@H](C)C(=O)OC(C)(C)C)CO [9c, Di-tert-butyl 2,2′-((((E)-1,1-difluoro-5-hydroxy-4-methylpent-3-en-1-yl)phosphoryl)bis(azanediyl))(2S,2′S)-dipropionate]	1500		
C/C(=C\CCP(=O)(N[C@@H](C)C(=O)OC(C)(C)C)N[C@@H](C)C(=O)OC(C)(C)C)CO [14c, Di-tert-butyl 2,2′-((((E)-5-hydroxy-4-methylpent-3-en-1-yl)phosphoryl)bis(azanediyl))(2S,2′S)-dipropionate]	6100		
O=P(O)(O)C(O)(Cc1cccnc1)P(=O)(O)O [risedronate]		80 to 5000	
C=C(C)CCOP(=O)(O)OP(=O)(O)O [IPP, isopentenyl pyrophosphate]		1000 to 10000	
C/C(=C\CC(F)(F)P(=O)(N[C@@H](C)C(=O)OCc1ccccc1)N[C@@H](C)C(=O)OCc1ccccc1)CO [9d, Dibenzyl 2,2′-((((E)-1,1-difluoro-5-hydroxy-4-methylpent-3-en-1-yl)phosphoryl)bis(azanediyl))(2S,2′S)-dipropionate]			Activation of Vγ9/Vδ2 T cells at the highest concentration studied (Vγ9/Vδ2 T cells [1]): less than that achieved with 10 μM; sensitizing effect for killing of T24 cells by Vγ9/Vδ2 T cells (T24 cells): much more potent
